Several values for one entry are separate records, joined by “and”; a condition that tells them apart may be missing. Identical values can stand only once. Records with an inconclusive call do not appear. Activity calls are given as the source filed them. How the calls were made is not given here.

The first assay relates to NIH-3T3 viability with fluconazole, Alamar Blue, 48 h. The experiment in a line: PubChem AID 493147.
Conditions: not given
Take `O=C(Cn1c2ccccc2c2nc3n(c(=O)c21)CCS3)N1CCCC1`: the AC50 is less than 0.1 µM.

On to `COC(=O)Cn1nc(-c2cccc(F)c2)c2ccccc21`, for which the AC50 is 12.8 µM.

For the compound `COC(=O)Cn1nc(-c2ccccc2OC)c2ccccc21`, the AC50 is 1.04 µM.

Turning to `COC(=O)Cn1c2ccccc2c2nc3n(c(=O)c21)CCS3`, the AC50 is 2.67 µM.

For `COc1cccnc1N1CCN(C(=O)c2ccc(Cl)cc2)CC1`, the concentration at half-maximal activity (AC50) was 0.124 µM.

Regarding `COC(=O)Cn1nc(-c2ccccc2)c2ccc(OC)cc21`, the AC50 was less than 0.1 µM.

For the compound `COC(=O)Cn1ncc2ccccc21`, the AC50 was less than 0.1 µM.

As for `COC(=O)Cn1nc(-c2ccc(C(F)(F)F)cc2)c2ccccc21`, the AC50 was less than 0.1 µM.

Consider `O=C(Cn1nc(-c2ccccc2)c2ccccc21)OC1CCC1`, for which the AC50 was 0.191 µM.

In the case of `COc1ccc(NC(=O)Cn2c3ccccc3c3nc4n(c(=O)c32)CCS4)cc1`, the concentration at half-maximal activity (AC50) was 14.9 µM.

For the compound `Cc1cccc(N2CCN(C(=O)c3ccc(Cl)cc3)CC2)n1`, the AC50 is 0.12 µM.

As to `O=C(c1ccc(Cl)cc1)N1CCN(c2nc3ccccc3o2)CC1`, the AC50 was 24.2 µM.

Take `O=C(Cn1nc(-c2ccccc2)c2ccccc21)NCc1ccc(Cl)cc1`: the AC50 was 25.9 µM.

On to `COC(=O)Cn1nc(-c2ccc(OC)cc2)c2ccccc21`, for which the AC50 is 1.02 µM.

In the case of `CC1CCN(C(=O)Cn2c3ccccc3c3nc4n(c(=O)c32)CCS4)CC1`, the AC50 was > 26 µM (inactive).

Consider `COC(=O)Cn1nc(I)c2ccccc21`, for which the AC50 is 0.528 µM.

Turning to `COc1ccc(C(=O)N2CCN(c3ccccn3)CC2)cc1`, the AC50 is 0.461 µM.

For the compound `Cc1ccc(N2CCN(C(=O)c3ccc(Cl)cc3)CC2)nc1`, the AC50 is > 26 µM (inactive).

With `O=C(c1ccc(Cl)cc1)N1CCN(c2cccc(C(F)(F)F)n2)CC1`, the AC50 is 17.6 µM.

Tested on in another assay: not listed separately
Kind of assay: PubChem AID 493147. As to conditions: NIH-3T3 viability with fluconazole, Alamar Blue, 48 h; at 2.6 µM (top of the series).
`COc1ccc2c(c1)c1nc3n(c(=O)c1n2CC(=O)N1CCC(C)CC1)CCS3`: the activity change, negative = toxicity is 41.3% (inactive).

The same assay, now with this note: NIH-3T3 viability with fluconazole, Alamar Blue, 48 h; at 26 µM (top of the series).
In the case of `N#Cc1ccc(C(=O)N2CCN(c3ccccn3)CC2)cc1`, the activity change, negative = toxicity is 15.4% (inactive).

With `O=C(Cn1c2ccccc2c2nc3n(c(=O)c21)CCS3)N1CCOCC1`, the activity change, negative = toxicity was -8.2% (inactive).

For `CC(C)(C)OC(=O)Cn1nc(-c2ccccc2)c2ccccc21`, the activity change, negative = toxicity is 20.8% (inactive).

Regarding `O=C(Cn1c2ccccc2c2nc3n(c(=O)c21)CCS3)N1CCCC1`, the activity change, negative = toxicity is -33.6% (inactive) and 2.45% (inactive).

On to `COC(=O)Cn1nc(-c2ccccc2)c2ccc(C)cc21`, for which the activity change, negative = toxicity is 16.9% (inactive).

Take `COC(=O)Cn1nc(-c2ccccc2)c2cc(OC)ccc21`: the activity change, negative = toxicity is -0.175% (inactive).

As to `CCCNC(=O)Cn1nc(-c2ccccc2)c2ccccc21`, the activity change, negative = toxicity is 20.3% (inactive).

`N#Cc1cccc(N2CCN(C(=O)c3ccc(Cl)cc3)CC2)n1`: the activity change, negative = toxicity was -27.5% (inactive).

Regarding `N#Cc1ccc(N2CCN(C(=O)c3ccc(Cl)cc3)CC2)nc1`, the activity change, negative = toxicity was -32.5% (inactive).

As to `COC(=O)Cn1nc(-c2ccccc2)c2ccccc21`, the activity change, negative = toxicity was -33.7% (inactive).

Take `CC(C)C(=O)N1CCN(c2ccccn2)CC1`: the activity change, negative = toxicity was 10% (inactive).

Turning to `O=c1c2[nH]c3ccc(F)cc3c2nc2n1CCS2`, the activity change, negative = toxicity is 9.27% (inactive).

On to `CCN(CC)C(=O)Cn1c2ccc(F)cc2c2nc3n(c(=O)c21)CCS3`, for which the activity change, negative = toxicity is -39.8% (inactive).

As to `O=C(Cn1c2ccccc2c2nc3n(c(=O)c21)CCS3)N1CCCCC1`, the activity change, negative = toxicity was -8.42% (inactive).

For the compound `COC(=O)Cn1nc(-c2ccccc2)c2cc(C)ccc21`, the activity change, negative = toxicity is 3.35% (inactive).

Take `COC(=O)CCCn1nc(-c2ccccc2)c2ccccc21`: the activity change, negative = toxicity was -45% (inactive).

As to `O=c1c2[nH]c3ccccc3c2nc2n1CCS2`, the activity change, negative = toxicity was -31.6% (inactive).

On to `O=C(Cn1c2ccccc2c2nc3n(c(=O)c21)CCS3)NCCc1ccc(Cl)cc1`, for which the activity change, negative = toxicity is -12% (inactive).

As to `O=C(Cn1nc(C(=O)N2CCCCC2)c2ccccc21)N1CCOCC1`, the activity change, negative = toxicity is -3.68% (inactive).

Consider `CCCCC(=O)N1CCN(c2ccccn2)CC1`, for which the activity change, negative = toxicity was 5.32% (inactive).

On to `O=C(C1CCCCC1)N1CCN(c2ccccn2)CC1`, for which the activity change, negative = toxicity was -25.3% (inactive).

Take `c1ccc(-c2nn(Cc3ncco3)c3ccccc23)cc1`: the activity change, negative = toxicity was -36.1% (inactive).

Regarding `O=C(c1ccccc1Cl)N1CCN(c2ccccn2)CC1`, the activity change, negative = toxicity was -3.33% (inactive).

Turning to `COC(=O)Cn1nc(-c2ccccc2)c2ccc(C(F)(F)F)cc21`, the activity change, negative = toxicity is -18.2% (inactive) and -8.9% (inactive).

As to `COC(=O)Cn1nc(C)c2ccccc21`, the activity change, negative = toxicity is -17.5% (inactive).

With `O=C1OCCC1n1nc(-c2ccccc2)c2ccccc21` (configuration not stated), the activity change, negative = toxicity is 4.08% (inactive).

Consider `COC(=O)Cn1nc(-c2ccc(F)cc2)c2ccccc21`, for which the activity change, negative = toxicity was -40.8% (inactive).

With `O=C(c1ccc(Cl)cc1)N1CCN(c2ccc(C(F)(F)F)cn2)CC1`, the activity change, negative = toxicity was 0.409% (inactive).

With `COC(=O)C(C)(C)n1nc(-c2ccccc2)c2ccccc21`, the activity change, negative = toxicity was -1.11% (inactive).

On to `COC(=O)[C@@H](C)n1nc(-c2ccccc2)c2ccccc21` (racemic), for which the activity change, negative = toxicity was -17.9% (inactive).

On to `COC(=O)Cn1nc(-c2ccc(C)cc2)c2ccccc21`, for which the activity change, negative = toxicity was -25% (inactive).

Turning to `O=C(Cn1c2ccc(F)cc2c2nc3n(c(=O)c21)CCS3)N1CCCCC1`, the activity change, negative = toxicity was -20.6% (inactive).

`O=C(Cn1c2ccc(F)cc2c2nc3n(c(=O)c21)CCS3)N1CCCCCC1`: the activity change, negative = toxicity is 21.2% (inactive).

With `N#CCn1nc(-c2ccccc2)c2ccccc21`, the activity change, negative = toxicity was 8% (inactive).

With `O=C(c1ccc(F)cc1)N1CCN(c2ccccn2)CC1`, the activity change, negative = toxicity is -8.14% (inactive).

Regarding `O=C(O)c1nn(Cc2ccc(Cl)cc2)c2ccccc12`, the activity change, negative = toxicity was -35.3% (inactive).

As for `COC(=O)Cn1nc(-c2ccc(Cl)cc2)c2ccccc21`, the activity change, negative = toxicity is -6.09% (inactive).

Regarding `Cc1ccnc(N2CCN(C(=O)c3ccc(Cl)cc3)CC2)c1`, the activity change, negative = toxicity was -20% (inactive).

As for `O=C(Cn1nc(-c2ccccc2)c2ccccc21)Oc1ccccc1`, the activity change, negative = toxicity was 26.7% (inactive).

Take `COC(=O)Cn1c(-c2ccccc2)nc2ccccc21`: the activity change, negative = toxicity is 10.3% (inactive).

As for `COC(=O)Cn1nc(-c2ccccc2)c2cc(Cl)ccc21`, the activity change, negative = toxicity is -3.67% (inactive).

Take `Cc1nn(S(C)(=O)=O)c2ccccc12`: the activity change, negative = toxicity was -19.3% (inactive).

As for `O=C(O)Cn1nc(-c2ccccc2)c2ccccc21`, the activity change, negative = toxicity is -23% (inactive).

As for `COC(=O)Cn1nc(-c2ccccc2C)c2ccccc21`, the activity change, negative = toxicity was 24.8% (inactive).

For `CNC(=O)Cn1nc(-c2ccccc2)c2ccccc21`, the activity change, negative = toxicity is 2.83% (inactive).

Take `CC(C)OC(=O)Cn1nc(-c2ccccc2)c2ccccc21`: the activity change, negative = toxicity is 11.4% (inactive).

In the case of `O=C(c1ccc(Cl)cc1)N1CCN(c2ncccc2C(F)(F)F)CC1`, the activity change, negative = toxicity is -31.9% (inactive).

With `COC(=O)Cn1nc(-c2cccc(OC)c2)c2ccccc21`, the activity change, negative = toxicity was -29.2% (inactive).

For the compound `COCCn1nc(-c2ccccc2)c2ccccc21`, the activity change, negative = toxicity is -7.82% (inactive).

As to `O=C(c1cccc(Cl)c1)N1CCN(c2ccccn2)CC1`, the activity change, negative = toxicity was -4.09% (inactive).

Consider `COCCC(=O)N1CCN(c2ccccn2)CC1`, for which the activity change, negative = toxicity is 2.45% (inactive).

Take `COc1ccc2c(c1)c1nc3n(c(=O)c1n2CC(=O)N1CCC(Cc2ccccc2)CC1)CCS3`: the activity change, negative = toxicity is 8.36% (inactive).

(Values after PubChem BioAssay AID493147 (Broad Institute, 2011).)
